For the assay, the target named is T1, PPARδ (Homo sapiens, UniProt Q03181).
T1 construct: gene PPARD; pcDNA3-PPARδ expressed in HeLa cells
T1 sequence (Q03181 1-441): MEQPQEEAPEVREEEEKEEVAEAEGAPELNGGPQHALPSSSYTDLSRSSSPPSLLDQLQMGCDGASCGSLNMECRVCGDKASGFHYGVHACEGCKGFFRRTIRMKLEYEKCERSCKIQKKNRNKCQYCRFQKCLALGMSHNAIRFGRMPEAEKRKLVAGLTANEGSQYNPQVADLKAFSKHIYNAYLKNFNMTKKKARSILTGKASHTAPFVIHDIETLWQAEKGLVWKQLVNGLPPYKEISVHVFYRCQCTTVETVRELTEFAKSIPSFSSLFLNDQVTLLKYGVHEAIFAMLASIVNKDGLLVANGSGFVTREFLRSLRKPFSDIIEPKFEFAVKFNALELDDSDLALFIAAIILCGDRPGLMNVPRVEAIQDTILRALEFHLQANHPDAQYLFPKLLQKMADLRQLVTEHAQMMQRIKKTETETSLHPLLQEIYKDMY
As to the kind of experiment: PPRE-luciferase transactivation assay in HeLa cells, single concentration ([…]). Type of assay: cell-based. To be noted: read-out: PPRE-luciferase transactivation assay in HeLa cells, single concentration (10 μM).

Turning to `Cc1ccc(Cn2c(=N)n(CC(=O)O)c3ccccc32)cc1` [compound 5, [2-imino-3-(4-methylbenzyl)-2,3-dihydro-1H-benzimidazol-1-yl]acetic acid], the fold induction at 10 µM is 6.4.
